Source: ChEMBL document CHEMBL3997763 (Medchemcomm, 2016)
The source made the active and inactive calls. The rule behind the calls is not given here.

Legend:
Rattus norvegicus [1] = test: Hypolipidemic activity in HFD-induced Charles Foster rat chronic hyperlipidemia model assessed as reduction in liver total cholesterol level at 10 mg/kg administered via oral gavage for 30 days simultaneously with high fat diet by enzymatic method relative to HFD treated vehicle; assay type: functional; details: 720 h
[2] = target: T1, 3-hydroxy-3-methylglutaryl-coenzyme A reductase (Homo sapiens) (UniProt P04035); test: Inhibition of human HMG-CoA reductase catalytic domain at 10 uM using HMG-CoA as substrate in presence of NADPH by colorimetric method relative to control
T1 sequence (whole entry): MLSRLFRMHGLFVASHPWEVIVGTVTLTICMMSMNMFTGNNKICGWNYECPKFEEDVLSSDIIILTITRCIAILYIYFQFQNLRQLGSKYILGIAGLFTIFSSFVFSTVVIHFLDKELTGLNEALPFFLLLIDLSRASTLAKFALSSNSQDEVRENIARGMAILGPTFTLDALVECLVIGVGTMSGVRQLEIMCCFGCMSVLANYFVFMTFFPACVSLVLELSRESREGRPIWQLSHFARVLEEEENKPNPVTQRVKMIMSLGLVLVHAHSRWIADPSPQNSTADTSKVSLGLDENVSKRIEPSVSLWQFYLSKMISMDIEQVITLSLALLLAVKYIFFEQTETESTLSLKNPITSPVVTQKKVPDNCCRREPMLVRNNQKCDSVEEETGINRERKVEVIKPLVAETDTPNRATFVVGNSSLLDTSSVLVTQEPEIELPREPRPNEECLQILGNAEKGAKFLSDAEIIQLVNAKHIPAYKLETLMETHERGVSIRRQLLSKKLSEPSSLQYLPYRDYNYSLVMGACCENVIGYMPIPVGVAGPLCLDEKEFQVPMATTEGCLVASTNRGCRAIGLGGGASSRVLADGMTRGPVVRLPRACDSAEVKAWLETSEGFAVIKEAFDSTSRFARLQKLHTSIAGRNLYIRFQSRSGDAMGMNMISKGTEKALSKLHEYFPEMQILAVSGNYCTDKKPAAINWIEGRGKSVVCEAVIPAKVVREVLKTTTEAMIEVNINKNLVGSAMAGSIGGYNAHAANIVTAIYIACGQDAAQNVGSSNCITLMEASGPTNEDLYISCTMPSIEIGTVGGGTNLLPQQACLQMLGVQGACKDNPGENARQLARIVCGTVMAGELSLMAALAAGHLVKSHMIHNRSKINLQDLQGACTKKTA

Rattus norvegicus [3] = test: Hypolipidemic activity in HFD-induced Charles Foster rat assessed as reduction in serum VLDL-TC at 10 mg/kg administered as single dose via oral gavage for 30 days simultaneously with high fat diet; assay type: functional, organism-based
Rattus norvegicus [4] = test: Hypolipidemic activity in HFD-induced Charles Foster rat assessed as increase in lipolytic activity of LPL in liver at 10 mg/kg administered as single dose via oral gavage for 30 days simultaneously with high fat diet; assay type: functional, organism-based
Rattus norvegicus [5] = test: Antihyperlipidemic activity in triton WR-1339 induced Charles Foster rat hyperlipidemia model assessed as inhibition of phospholipid level in serum at 10 mg/kg, po administered simultaneously with triton WR-1339 after 18 hrs by enzymatic method relative to control; assay type: functional
[6] = target: T1, 3-hydroxy-3-methylglutaryl-coenzyme A reductase (Homo sapiens); test: Inhibition of human HMG-CoA reductase catalytic domain at 5 uM using HMG-CoA as substrate in presence of NADPH by colorimetric method relative to control
Rattus norvegicus [7] = test: Hypolipidemic activity in HFD-induced Charles Foster rat assessed as reduction in serum LDL-TC at 10 mg/kg administered as single dose via oral gavage for 30 days simultaneously with high fat diet; assay type: functional, organism-based
Rattus norvegicus [8] = test: Hypolipidemic activity in HFD-induced Charles Foster rat assessed as increase in serum HDL-TC at 10 mg/kg administered as single dose via oral gavage for 30 days simultaneously with high fat diet; assay type: functional, organism-based
[9] = target: T1, 3-hydroxy-3-methylglutaryl-coenzyme A reductase (Homo sapiens); test: Inhibition of human HMG-CoA reductase catalytic domain at 50 uM using HMG-CoA as substrate in presence of NADPH by colorimetric method relative to control
Rattus norvegicus [10] = test: Hypolipidemic activity in HFD-induced Charles Foster rat assessed as inhibition of hepatic HMG-CoA reductase activity by measuring […] at 10 mg/kg administered as single dose via oral gavage for 30 days simultaneously with high fat diet by colorimetric method; assay type: functional, organism-based
Rattus norvegicus [11] = test: Antihyperlipidemic activity in triton WR-1339 induced Charles Foster rat hyperlipidemia model assessed as inhibition of triglyceride level in serum at 10 mg/kg, po administered simultaneously with triton WR-1339 after 18 hrs by enzymatic method relative to control; assay type: functional
Rattus norvegicus [12] = test: Hypolipidemic activity in HFD-induced Charles Foster rat chronic hyperlipidemia model assessed as reduction in liver triglyceride level at 10 mg/kg administered via oral gavage for 30 days simultaneously with high fat diet by enzymatic method relative to HFD treated vehicle; assay type: functional; details: 720 h
Rattus norvegicus [13] = test: Hypolipidemic activity in HFD-induced Charles Foster rat chronic hyperlipidemia model assessed as reduction in serum ALT level at 10 mg/kg administered via oral gavage for 30 days simultaneously with high fat diet by colorimetric method relative to HFD treated vehicle; assay type: functional; details: 720 h
Rattus norvegicus [14] = test: Hypolipidemic activity in HFD-induced Charles Foster rat chronic hyperlipidemia model assessed as reduction in serum triglyceride level at 10 mg/kg administered via oral gavage for 30 days simultaneously with high fat diet by enzymatic method relative to HFD treated vehicle; assay type: functional; details: 720 h
[15] = target: T1, 3-hydroxy-3-methylglutaryl-coenzyme A reductase (Homo sapiens); test: Inhibition of human HMG-CoA reductase catalytic domain at 20 uM using HMG-CoA as substrate in presence of NADPH by colorimetric method relative to control
Rattus norvegicus [16] = test: Hypolipidemic activity in HFD-induced Charles Foster rat assessed as increase in human I125-LDL binding to rat liver plasma membrane at 10 mg/kg administered as single dose via oral gavage for 30 days simultaneously with high fat diet by minigamma counting; assay type: functional, organism-based
Rattus norvegicus [17] = test: Hypolipidemic activity in HFD-induced Charles Foster rat chronic hyperlipidemia model assessed as reduction in serum AST level at 10 mg/kg administered via oral gavage for 30 days simultaneously with high fat diet by colorimetric method relative to HFD treated vehicle; assay type: functional; details: 720 h
Rattus norvegicus [18] = test: Antihyperlipidemic activity in triton WR-1339 induced Charles Foster rat hyperlipidemia model assessed as inhibition of total cholesterol level in serum at 10 mg/kg, po administered simultaneously with triton WR-1339 after 18 hrs by enzymatic method relative to control; assay type: functional
[19] = target: T1, 3-hydroxy-3-methylglutaryl-coenzyme A reductase (Homo sapiens); test: Inhibition of human HMG-CoA reductase catalytic domain at 1 uM using HMG-CoA as substrate in presence of NADPH by colorimetric method relative to control
Rattus norvegicus [20] = test: Hypolipidemic activity in HFD-induced Charles Foster rat assessed as increase in serum LCAT activity at 10 mg/kg administered as single dose via oral gavage for 30 days simultaneously with high fat diet by photometric method; assay type: functional, organism-based
Rattus norvegicus [21] = test: Hypolipidemic activity in HFD-induced Charles Foster rat assessed as reduction in serum VLDL-TG at 10 mg/kg administered as single dose via oral gavage for 30 days simultaneously with high fat diet; assay type: functional, organism-based
Rattus norvegicus [22] = test: Hypolipidemic activity in HFD-induced Charles Foster rat chronic hyperlipidemia model assessed as reduction in serum total cholesterol level at 10 mg/kg administered via oral gavage for 30 days simultaneously with high fat diet by enzymatic method relative to HFD treated vehicle; assay type: functional; details: 720 h
[23] = target: T1, 3-hydroxy-3-methylglutaryl-coenzyme A reductase (Homo sapiens); test: Inhibition of human HMG-CoA reductase catalytic domain at 100 uM using HMG-CoA as substrate in presence of NADPH by colorimetric method relative to control
Rattus norvegicus [24] = test: Hypolipidemic activity in HFD-induced Charles Foster rat assessed as reduction in serum LDL-TG at 10 mg/kg administered as single dose via oral gavage for 30 days simultaneously with high fat diet; assay type: functional, organism-based
Rattus norvegicus [25] = test: Hypolipidemic activity in HFD-induced Charles Foster rat assessed as increase in serum HDL-TG at 10 mg/kg administered as single dose via oral gavage for 30 days simultaneously with high fat diet; assay type: functional, organism-based

SMILES: CC(C)c1c(C(=O)Nc2ccccc2)c(-c2ccccc2)c(-c2ccc(F)cc2)n1CC[C@@H](O)C[C@@H](O)CC(=O)O [ATORVASTATIN]
- inhibition in vivo at 10 mg/kg (Rattus norvegicus [1]): 28%
- inhibition [2]: 60 to 63%
- Activity (Rattus norvegicus [3]): Active
- Activity (Rattus norvegicus [4]): Active
- inhibition in vivo at 10 mg/kg (Rattus norvegicus [5]): 35%
- inhibition [6]: 35%
- Activity (Rattus norvegicus [7]): Active
- Activity (Rattus norvegicus [8]): Active
- inhibition [9]: 76%
- inhibition (Rattus norvegicus [10]): Active
- inhibition in vivo at 10 mg/kg (Rattus norvegicus [11]): 35%
- inhibition in vivo at 10 mg/kg (Rattus norvegicus [12]): 30%
- inhibition in vivo at 10 mg/kg (Rattus norvegicus [13]): 25%
- inhibition in vivo at 10 mg/kg (Rattus norvegicus [14]): 26%
- inhibition [15]: 69%
- Activity (Rattus norvegicus [16]): Active
- inhibition in vivo at 10 mg/kg (Rattus norvegicus [17]): 29%
- inhibition in vivo at 10 mg/kg (Rattus norvegicus [18]): 36%
- inhibition [19]: 20%
- Activity (Rattus norvegicus [20]): Active
- Activity (Rattus norvegicus [21]): Active
- inhibition in vivo at 10 mg/kg (Rattus norvegicus [22]): 25%
- inhibition [23]: 83%
- Activity (Rattus norvegicus [24]): Active
- Activity (Rattus norvegicus [25]): Active
